The source made the active and inactive calls. The calls are words filed in the database; no cut-off is given here.
How the values were obtained:
Plasmodium berghei [1] = test: Antimalarial activity against Plasmodium berghei infected in mouse assessed as increase in mean survival days of host at 40 mg/kg, sc administered 72 hrs after infection relative to control; format: functional; details: route subcutaneous
Plasmodium berghei [2] = test: Antimalarial activity against Plasmodium berghei infected in mouse assessed as increase in mean survival days of host at 10 mg/kg, sc administered 72 hrs after infection relative to control; format: functional; details: route subcutaneous
Plasmodium gallinaceum [3] = test: Antimalarial activity against trophozoite-induced Plasmodium gallinaceum infected in white leghorn chicken assessed as increase in mean survival days of host at 40 mg/kg, sc administered 72 hrs after infection relative to control; format: functional; details: route subcutaneous
Plasmodium berghei [4] = test: Antimalarial activity against trophozoite-induced Plasmodium berghei infected in mouse assessed as daily dose required to suppression of 90% parasite infection administered with diet for 6 days; format: functional
Enterococcus faecalis = test: Antibacterial activity against Streptococcus faecalis MGH-2 by gradient plate test; format: functional
Plasmodium gallinaceum [5] = test: Antimalarial activity against sporozoite-induced Plasmodium gallinaceum infected in white leghorn chicken assessed as increase in mean survival days of host at 240 mg/kg, sc administered 72 hrs after infection relative to control; format: functional; details: route subcutaneous
Plasmodium berghei [6] = test: Antimalarial activity against Plasmodium berghei infected in mouse assessed as increase in mean survival days of host at 320 mg/kg, sc administered 72 hrs after infection relative to control; format: functional; details: route subcutaneous
Staphylococcus aureus [7] = test: Antibacterial activity against Staphylococcus aureus UC-96 by gradient plate test; format: functional
Plasmodium gallinaceum [8] = test: Antimalarial activity against trophozoite-induced Plasmodium gallinaceum infected in white leghorn chicken assessed as increase in mean survival days of host at 160 mg/kg, sc administered 72 hrs after infection relative to control; format: functional; details: route subcutaneous
Plasmodium gallinaceum [9] = test: Antimalarial activity against trophozoite-induced Plasmodium gallinaceum infected in white leghorn chicken assessed as increase in mean survival days of host at 20 mg/kg, sc administered 72 hrs after infection relative to control; format: functional; details: route subcutaneous
Pseudomonas aeruginosa = test: Antibacterial activity against Pseudomonas aeruginosa 28 by gradient plate test; format: functional
Plasmodium gallinaceum [10] = test: Antimalarial activity against trophozoite-induced Plasmodium gallinaceum infected in white leghorn chicken assessed as increase in mean survival days of host at 10 mg/kg, sc administered 72 hrs after infection relative to control; format: functional; details: route subcutaneous
Plasmodium berghei [11] = test: Antimalarial activity against Plasmodium berghei infected in mouse assessed as disease cure from parasite infection at 320 mg/kg, sc administered 72 hrs after infection; format: functional, organism-based; set-up: dose 320 mg/kg
Escherichia coli = test: Antibacterial activity against Escherichia coli Vogel by gradient plate test; format: functional
Plasmodium gallinaceum [12] = test: Antimalarial activity against trophozoite-induced Plasmodium gallinaceum infected in white leghorn chicken assessed as increase in mean survival days of host at 320 mg/kg, sc administered 72 hrs after infection relative to control; format: functional; details: route subcutaneous
Gallus gallus [13] = test: Toxicity in sporozoite-induced Plasmodium gallinaceum infected white leghorn chicken assessed as mortality at 480 mg/kg, sc administered 72 hrs after infection measured up to 6 days; format: organism-based; set-up: dose 480 mg/kg, route subcutaneous; details: in vivo
Plasmodium berghei [14] = test: Antimalarial activity against Plasmodium berghei infected in mouse assessed as increase in mean survival days of host at 80 mg/kg, sc administered 72 hrs after infection relative to control; format: functional; details: route subcutaneous
Plasmodium berghei [15] = test: Antimalarial activity against Plasmodium berghei infected in mouse assessed as increase in mean survival days of host at 5 mg/kg, sc administered 72 hrs after infection relative to control; format: functional; details: route subcutaneous
Plasmodium berghei [16] = test: Antimalarial activity against Plasmodium berghei infected in mouse assessed as disease cure from parasite infection at 160 mg/kg, sc administered 72 hrs after infection; format: functional, organism-based; set-up: dose 160 mg/kg
Plasmodium berghei [17] = test: Antimalarial activity against Plasmodium berghei infected in mouse assessed as increase in mean survival days of host at 160 mg/kg, sc administered 72 hrs after infection relative to control; format: functional; details: route subcutaneous
Plasmodium gallinaceum [18] = test: Antimalarial activity against trophozoite-induced Plasmodium gallinaceum infected in white leghorn chicken assessed as increase in mean survival days of host at 80 mg/kg, sc administered 72 hrs after infection relative to control; format: functional; details: route subcutaneous
Gallus gallus [19] = test: Toxicity in sporozoite-induced Plasmodium gallinaceum infected white leghorn chicken assessed as mortality at 240 mg/kg, sc administered 72 hrs after infection measured up to 6 days; format: organism-based; set-up: dose 240 mg/kg, route subcutaneous; details: in vivo
Plasmodium berghei [20] = test: Ratio of quinine hydrochloride SD90 to compound SD90 for trophozoite-induced Plasmodium berghei infected in mouse assessed as daily dose required to suppression of 90% parasite infection administered with diet for 6 days; format: functional
Plasmodium gallinaceum [21] = test: Antimalarial activity against sporozoite-induced Plasmodium gallinaceum infected in white leghorn chicken assessed as increase in mean survival days of host at 120 mg/kg, sc administered 72 hrs after infection relative to control; format: functional; details: route subcutaneous
Plasmodium berghei [22] = test: Antimalarial activity against Plasmodium berghei infected in mouse assessed as increase in mean survival days of host at 20 mg/kg, sc administered 72 hrs after infection relative to control; format: functional; details: route subcutaneous
Staphylococcus aureus [23] = test: Antibacterial activity against drug-resistant Staphylococcus aureus S18713 by gradient plate test; format: functional
Shigella sonnei = test: Antibacterial activity against Shigella sonnei C-10 by gradient plate test; format: functional
Plasmodium gallinaceum [24] = test: Antimalarial activity against trophozoite-induced Plasmodium gallinaceum infected in white leghorn chicken assessed as increase in mean survival days of host at 0.63 mg/kg, sc administered 72 hrs after infection relative to control; format: functional; details: route subcutaneous
Plasmodium berghei [25] = test: Antimalarial activity against Plasmodium berghei infected in mouse assessed as disease cure from parasite infection at 40 mg/kg, sc administered 72 hrs after infection; format: functional, organism-based; set-up: dose 40 mg/kg
Plasmodium gallinaceum [26] = test: Antimalarial activity against sporozoite-induced Plasmodium gallinaceum infected in white leghorn chicken assessed as increase in mean survival days of host at 10 mg/kg, sc administered 72 hrs after infection relative to control; format: functional; details: route subcutaneous
Plasmodium berghei [27] = test: Antimalarial activity against Plasmodium berghei infected in mouse assessed as disease cure from parasite infection at 640 mg/kg, sc administered 72 hrs after infection; format: functional, organism-based; set-up: dose 640 mg/kg
Plasmodium gallinaceum [28] = test: Antimalarial activity against sporozoite-induced Plasmodium gallinaceum infected in white leghorn chicken assessed as increase in mean survival days of host at 40 mg/kg, sc administered 72 hrs after infection relative to control; format: functional; details: route subcutaneous
Plasmodium gallinaceum [29] = test: Antimalarial activity against sporozoite-induced Plasmodium gallinaceum infected in white leghorn chicken assessed as disease cure from parasite infection at 80 mg/kg, sc administered 72 hrs after infection; format: functional, organism-based; set-up: dose 80 mg/kg
Plasmodium gallinaceum [30] = test: Antimalarial activity against sporozoite-induced Plasmodium gallinaceum infected in white leghorn chicken assessed as disease cure from parasite infection at 20 mg/kg, sc administered 72 hrs after infection; format: functional, organism-based; set-up: dose 20 mg/kg
Plasmodium gallinaceum [31] = test: Antimalarial activity against sporozoite-induced Plasmodium gallinaceum infected in white leghorn chicken assessed as increase in mean survival days of host at 20 mg/kg, sc administered 72 hrs after infection relative to control; format: functional; details: route subcutaneous
Plasmodium gallinaceum [32] = test: Antimalarial activity against sporozoite-induced Plasmodium gallinaceum infected in white leghorn chicken assessed as disease cure from parasite infection at 320 mg/kg, sc administered 72 hrs after infection; format: functional, organism-based; set-up: dose 320 mg/kg
Plasmodium gallinaceum [33] = test: Antimalarial activity against sporozoite-induced Plasmodium gallinaceum infected in white leghorn chicken assessed as disease cure from parasite infection at 40 mg/kg, sc administered 72 hrs after infection; format: functional, organism-based; set-up: dose 40 mg/kg
Plasmodium gallinaceum [34] = test: Antimalarial activity against trophozoite-induced Plasmodium gallinaceum infected in white leghorn chicken assessed as disease cure from parasite infection at 320 mg/kg, sc administered 72 hrs after infection; format: functional, organism-based; set-up: dose 320 mg/kg
Plasmodium berghei [35] = test: Antimalarial activity against Plasmodium berghei infected in mouse assessed as increase in mean survival days of host at 1.25 mg/kg, sc administered 72 hrs after infection relative to control; format: functional; details: route subcutaneous
Plasmodium gallinaceum [36] = test: Antimalarial activity against sporozoite-induced Plasmodium gallinaceum infected in white leghorn chicken assessed as disease cure from parasite infection at 160 mg/kg, sc administered 72 hrs after infection; format: functional, organism-based; set-up: dose 160 mg/kg
Gallus gallus [37] = test: Toxicity in sporozoite-induced Plasmodium gallinaceum infected white leghorn chicken assessed as mortality at 320 mg/kg, sc administered 72 hrs after infection measured up to 6 days; format: organism-based; set-up: dose 320 mg/kg, route subcutaneous; details: in vivo
Plasmodium gallinaceum [38] = test: Antimalarial activity against trophozoite-induced Plasmodium gallinaceum infected in white leghorn chicken assessed as increase in mean survival days of host at 2.5 mg/kg, sc administered 72 hrs after infection relative to control; format: functional; details: route subcutaneous
Plasmodium gallinaceum [39] = test: Antimalarial activity against sporozoite-induced Plasmodium gallinaceum infected in white leghorn chicken assessed as increase in mean survival days of host at 80 mg/kg, sc administered 72 hrs after infection relative to control; format: functional; details: route subcutaneous
Plasmodium berghei [40] = test: Antimalarial activity against Plasmodium berghei infected in mouse assessed as increase in mean survival days of host at 2.5 mg/kg, sc administered 72 hrs after infection relative to control; format: functional; details: route subcutaneous
Plasmodium berghei [41] = test: Antimalarial activity against Plasmodium berghei infected in mouse assessed as disease cure from parasite infection at 20 mg/kg, sc administered 72 hrs after infection; format: functional, organism-based; set-up: dose 20 mg/kg
Plasmodium gallinaceum [42] = test: Antimalarial activity against trophozoite-induced Plasmodium gallinaceum infected in white leghorn chicken assessed as disease cure from parasite infection at 160 mg/kg, sc administered 72 hrs after infection; format: functional, organism-based; set-up: dose 160 mg/kg
Gallus gallus [43] = test: Toxicity in sporozoite-induced Plasmodium gallinaceum infected white leghorn chicken assessed as mortality at 160 mg/kg, sc administered 72 hrs after infection measured up to 6 days; format: organism-based; set-up: dose 160 mg/kg, route subcutaneous; details: in vivo
Plasmodium berghei [44] = test: Antimalarial activity against Plasmodium berghei infected in mouse assessed as disease cure from parasite infection at 80 mg/kg, sc administered 72 hrs after infection; format: functional, organism-based; set-up: dose 80 mg/kg
Plasmodium gallinaceum [45] = test: Antimalarial activity against sporozoite-induced Plasmodium gallinaceum infected in white leghorn chicken assessed as disease cure from parasite infection at 10 mg/kg, sc administered 72 hrs after infection; format: functional, organism-based; set-up: dose 10 mg/kg
Plasmodium gallinaceum [46] = test: Antimalarial activity against trophozoite-induced Plasmodium gallinaceum infected in white leghorn chicken assessed as increase in mean survival days of host at 1.25 mg/kg, sc administered 72 hrs after infection relative to control; format: functional; details: route subcutaneous
Plasmodium gallinaceum [47] = test: Antimalarial activity against trophozoite-induced Plasmodium gallinaceum infected in white leghorn chicken assessed as increase in mean survival days of host at 5 mg/kg, sc administered 72 hrs after infection relative to control; format: functional; details: route subcutaneous

## Nc1nc(N)c2cc(Sc3ccccc3)ccc2n1
Plasmodium berghei [1]
  MST: 6.3 days
Plasmodium berghei [2]
  MST: 3.3 days
Plasmodium gallinaceum [3]
  MST: 6.2 days
Plasmodium berghei [4]
  SD90: 8.2 mg/kg/day
Enterococcus faecalis
  MIC: < 0.25 µg/mL
Plasmodium gallinaceum [5]
  MST: 1.6 days
Plasmodium berghei [6]
  MST: 14.7 days
Staphylococcus aureus [7]
  MIC: < 0.25 µg/mL
Plasmodium gallinaceum [8]
  MST: 7.8 days
Plasmodium gallinaceum [9]
  MST: 5.6 days
Pseudomonas aeruginosa
  MIC: > 25 µg/mL
Plasmodium gallinaceum [10]
  MST: 0 days
Plasmodium berghei [11]
  Activity: Active
Escherichia coli
  MIC: < 0.25 µg/mL
Plasmodium gallinaceum [12]
  MST: 11.4 days
Gallus gallus [13]
  Activity: Toxic
Plasmodium berghei [14]
  MST: 9.7 days
Plasmodium berghei [15]
  MST: 1.1 days
Plasmodium berghei [16]
  Activity: Active
Plasmodium berghei [17]
  MST: 14 days
Plasmodium gallinaceum [18]
  MST: 6.4 days
Gallus gallus [19]
  Activity: Toxic
Plasmodium berghei [20]
  Ratio: 9.1
Plasmodium gallinaceum [21]
  MST: 2.4 days
Plasmodium berghei [22]
  MST: 4.7 days
Staphylococcus aureus [23]
  MIC: < 0.25 µg/mL
Shigella sonnei
  MIC: < 0.25 µg/mL

## Nc1nc(N)c2cc(Sc3ccc(F)cc3)ccc2n1
Plasmodium gallinaceum [24]
  MST: 0 days
Plasmodium berghei [25]
  Activity: Active
Plasmodium gallinaceum [26]
  MST: 6.5 days
Plasmodium berghei [2]
  MST: 11.1 days
Plasmodium gallinaceum [3]
  MST: 9.2 days
Plasmodium berghei [27]
  Activity: Active
Plasmodium gallinaceum [28]
  MST: 0.5 days
Plasmodium berghei [4]
  SD90: 0.36 mg/kg/day
Plasmodium gallinaceum [29]
  Activity: Active
Enterococcus faecalis
  MIC: < 0.25 µg/mL
Plasmodium gallinaceum [30]
  Activity: Active
Plasmodium gallinaceum [31]
  MST: 0.5 days
Plasmodium gallinaceum [32]
  Activity: Active
Staphylococcus aureus [7]
  MIC: < 0.25 µg/mL
Plasmodium gallinaceum [8]
  MST: 15.5 days
Plasmodium gallinaceum [9]
  MST: 7.8 days
Pseudomonas aeruginosa
  MIC: > 25 µg/mL
Plasmodium gallinaceum [10]
  MST: 7.2 days
Plasmodium berghei [11]
  Activity: Active
Plasmodium gallinaceum [33]
  Activity: Active
Escherichia coli
  MIC: < 0.25 µg/mL
Plasmodium gallinaceum [34]
  Activity: Active
Plasmodium berghei [35]
  MST: 5.3 days
Plasmodium gallinaceum [12]
  MST: 19.3 days
Plasmodium gallinaceum [36]
  Activity: Active
Plasmodium berghei [15]
  MST: 7.1 days
Gallus gallus [37]
  Activity: Toxic
Plasmodium berghei [16]
  Activity: Active
Plasmodium gallinaceum [38]
  MST: 3.2 days
Plasmodium gallinaceum [39]
  MST: 0.5 days
Plasmodium gallinaceum [18]
  MST: 13 days
Plasmodium berghei [40]
  MST: 6.1 days
Plasmodium berghei [41]
  Activity: Active
Plasmodium berghei [20]
  Ratio: 210
Plasmodium gallinaceum [42]
  Activity: Active
Gallus gallus [43]
  Activity: Toxic
Plasmodium berghei [22]
  MST: 13.5 days
Plasmodium berghei [44]
  Activity: Active
Plasmodium gallinaceum [45]
  Activity: Active
Staphylococcus aureus [23]
  MIC: < 0.25 µg/mL
Plasmodium gallinaceum [46]
  MST: 0 days
Plasmodium gallinaceum [47]
  MST: 5.8 days
Shigella sonnei
  MIC: < 0.25 µg/mL

Reference: ChEMBL document CHEMBL3272271, “Folate antagonists. 13. 2,4-Diamino-6-](alpha,alpha,alpha-trifluoro-m-tolyl)thio]quinazoline and related 2,4-diamino-6-[(phenyl- and naphthyl)thio]quinazolines, a unique class of antimetabolites with extraordinary antimalarial and antibacterial effects” (J Med Chem, 1978)
